In US9427482B2, “Agents for clearing biomolecules from circulation” (KONINKLIJKE PHILIPS N.V., priority 2010, dated 2016):

Test system: LS174T xenografts
Assay: Biodistribution, blood kinetics and excretion of CC49-TCO-18 pretargeted ^177Lu-tetrazine 15 (Example 12)
Assay type: in vivo, mice
Description: Groups of 4 mice bearing LS174T xenografts (70-100 mm^3) were injected either with directly labeled ^177Lu-DOTA-CC49 (100 μg/100 μl, ca. 0.5 MBq per mouse) or with CC49-TCO-18 pretargeted ^177Lu-tetrazine 15 (100 μg/100 μl CC49-TCO-18 followed by two 160 μg/100 μl doses of galactose-MSA-tetrazine 12 at 30 and 48 hours and by 8.52 μg/80 μl ^177Lu-tetrazine 15, 0.8-1.2 MBq per mouse, containing 100 μg gentisic acid). One group of mice injected with ^177Lu-DOTA-CC49 and one injected with pretargeted ^177Lu-tetrazine were used to evaluate the early blood distribution of the two tracers by withdrawing blood samples from the vena saphena at selected time points (2, 30, and 60 min for ^177Lu-DOTA-CC49 and 2, 5, 10, 20, 30, and 45 min for pretargeted ^177Lu-tetrazine) (FIG. 15). These two groups of mice were then sacrificed 3 h and 1 h after the injection of ^177Lu-DOTA-CC49 and ^177Lu-tetrazine, respectively. All other groups of mice were sacrificed at various time points up to 7 days post tracer injection. After sacrifice, blood was withdrawn by heart puncture and selected organs and tissues were harvested and blotted dry. The blood samples and tissues were weighed, added with 1 mL PBS and the radioactivity was counted in a gamma counter along with standards to determine the % ID/g and % ID (Tables 7-8). Two additional groups of tumor bearing mice were used for excretion profiles (FIG. 16). The mice injected with ^177Lu-DOTA-CC49 were housed in filtered caging units and at various time points the bedding was counted in a gamma counter along with standards. The other group of mice was injected with ^177Lu-tetrazine at higher specific activity (ca. 12 MBq/8.52 μg tetrazine per mouse) and whole body clearance was monitored by measuring the animals in a dose calibrator at various time points.

With `O=C([O-])CN1CCN(CC(=O)[O-])CCN(CC(=O)NCCOCCOCCOCCOCCOCCOCCOCCOCCOCCOCCOCCNC(=O)CCCC(=O)Nc2ccc(-c3nnc(-c4ccccn4)nn3)nc2)CCN(CC(=O)[O-])CC1.[177Lu+3]` [^177Lu-tetrazine] as the compound, how does the biodistribution bladder (1 hours) read?
The biodistribution bladder was 2.21 ± 1.15 % ID/g.

What about the biodistribution blood (1 hours) of the same compound?
Its biodistribution blood is 0.42 ± 0.20 % ID/g.

And the biodistribution bone (1 hours)?
Its biodistribution bone is 1.08 ± 1.34 % ID/g.

And the biodistribution brain (1 hours)?
The biodistribution brain was 0.03 ± 0.03 % ID/g.

What about the biodistribution heart (1 hours) of the same compound?
The biodistribution heart was 0.16 ± 0.05 % ID/g.

And the biodistribution kidney (1 hours)?
Its biodistribution kidney is 2.38 ± 0.55 % ID/g.

And the biodistribution lg. intestine (1 hours)?
The biodistribution lg. intestine was 0.38 ± 0.11 % ID.

And the biodistribution liver (1 hours)?
Its biodistribution liver is 0.29 ± 0.08 % ID/g.

What about the biodistribution lung (1 hours) of the same compound?
The biodistribution lung was 0.54 ± 0.15 % ID/g.

And the biodistribution muscle (1 hours)?
The biodistribution muscle was 0.23 ± 0.21 % ID/g.

And the biodistribution ovaries (1 hours)?
Its biodistribution ovaries is 0.57 ± 0.37 % ID/g.

What about the biodistribution sm. intestine (1 hours) of the same compound?
The biodistribution sm. intestine was 0.16 ± 0.03 % ID.

And the biodistribution spleen (1 hours)?
Its biodistribution spleen is 0.17 ± 0.04 % ID/g.

And the biodistribution stomach (1 hours)?
The biodistribution stomach was 0.10 ± 0.10 % ID.

What about the biodistribution tumor (1 hours) of the same compound?
The biodistribution tumor was 4.71 ± 1.13 % ID/g.

What about the biodistribution uterus (1 hours) of the same compound?
The biodistribution uterus was 2.80 ± 1.64 % ID/g.

What about the biodistribution bladder (3 hours) of the same compound?
Its biodistribution bladder is 0.85 ± 0.64 % ID/g.

And the biodistribution blood (3 hours)?
Its biodistribution blood is 0.03 ± 0.00 % ID/g.

And the biodistribution bone (3 hours)?
The biodistribution bone was 0.17 ± 0.19 % ID/g.

And the biodistribution brain (3 hours)?
The biodistribution brain was 0.00 ± 0.00 % ID/g.

And the biodistribution heart (3 hours)?
Its biodistribution heart is 0.04 ± 0.00 % ID/g.

And the biodistribution kidney (3 hours)?
Its biodistribution kidney is 1.58 ± 0.14 % ID/g.

What about the biodistribution lg. intestine (3 hours) of the same compound?
Its biodistribution lg. intestine is 0.15 ± 0.04 % ID.

And the biodistribution liver (3 hours)?
The biodistribution liver was 0.18 ± 0.02 % ID/g.

What about the biodistribution lung (3 hours) of the same compound?
Its biodistribution lung is 0.21 ± 0.03 % ID/g.

And the biodistribution muscle (3 hours)?
The biodistribution muscle was 0.05 ± 0.03 % ID/g.

What about the biodistribution ovaries (3 hours) of the same compound?
The biodistribution ovaries was 0.21 ± 0.19 % ID/g.

What about the biodistribution sm. intestine (3 hours) of the same compound?
The biodistribution sm. intestine was 0.22 ± 0.07 % ID.

What about the biodistribution spleen (3 hours) of the same compound?
Its biodistribution spleen is 0.09 ± 0.01 % ID/g.

What about the biodistribution stomach (3 hours) of the same compound?
The biodistribution stomach was 0.02 ± 0.01 % ID.

And the biodistribution tumor (3 hours)?
Its biodistribution tumor is 5.38 ± 0.48 % ID/g.

What about the biodistribution uterus (3 hours) of the same compound?
Its biodistribution uterus is 0.35 ± 0.42 % ID/g.

What about the “injected activity excreted in the urine” value (3 hours post injection) of the same compound?
The value was “over 95%”.

What about the tumor-to-blood ratio (3 hours post injection) of the same compound?
Its tumor-to-blood ratio is ~200.

What about the biodistribution bladder (6 hours) of the same compound?
The biodistribution bladder was 0.20 ± 0.08 % ID/g.

And the biodistribution blood (6 hours)?
Its biodistribution blood is 0.02 ± 0.00 % ID/g.

What about the biodistribution bone (6 hours) of the same compound?
Its biodistribution bone is 0.03 ± 0.00 % ID/g.

What about the biodistribution brain (6 hours) of the same compound?
Its biodistribution brain is 0.00 ± 0.00 % ID/g.

And the biodistribution heart (6 hours)?
Its biodistribution heart is 0.03 ± 0.01 % ID/g.

What about the biodistribution kidney (6 hours) of the same compound?
Its biodistribution kidney is 1.09 ± 0.18 % ID/g.

What about the biodistribution lg. intestine (6 hours) of the same compound?
Its biodistribution lg. intestine is 0.05 ± 0.01 % ID.

And the biodistribution liver (6 hours)?
The biodistribution liver was 0.15 ± 0.01 % ID/g.

And the biodistribution lung (6 hours)?
Its biodistribution lung is 0.11 ± 0.02 % ID/g.

What about the biodistribution muscle (6 hours) of the same compound?
Its biodistribution muscle is 0.02 ± 0.00 % ID/g.

And the biodistribution ovaries (6 hours)?
The biodistribution ovaries was 0.09 ± 0.02 % ID/g.

And the biodistribution sm. intestine (6 hours)?
The biodistribution sm. intestine was 0.38 ± 0.26 % ID.

And the biodistribution spleen (6 hours)?
Its biodistribution spleen is 0.07 ± 0.01 % ID/g.

And the biodistribution stomach (6 hours)?
The biodistribution stomach was 0.01 ± 0.01 % ID.

And the biodistribution tumor (6 hours)?
The biodistribution tumor was 4.53 ± 1.69 % ID/g.

What about the biodistribution uterus (6 hours) of the same compound?
Its biodistribution uterus is 0.10 ± 0.04 % ID/g.

What about the biodistribution bladder (1 day) of the same compound?
Its biodistribution bladder is 0.20 ± 0.06 % ID/g.

And the biodistribution blood (1 day)?
The biodistribution blood was 0.01 ± 0.00 % ID/g.

And the biodistribution bone (1 day)?
The biodistribution bone was 0.03 ± 0.01 % ID/g.

And the biodistribution brain (1 day)?
The biodistribution brain was 0.00 ± 0.00 % ID/g.

And the biodistribution heart (1 day)?
Its biodistribution heart is 0.03 ± 0.00 % ID/g.

And the biodistribution kidney (1 day)?
Its biodistribution kidney is 1.01 ± 0.13 % ID/g.

And the biodistribution lg. intestine (1 day)?
The biodistribution lg. intestine was 0.06 ± 0.06 % ID.

What about the biodistribution liver (1 day) of the same compound?
The biodistribution liver was 0.13 ± 0.02 % ID/g.

And the biodistribution lung (1 day)?
Its biodistribution lung is 0.10 ± 0.01 % ID/g.

And the biodistribution muscle (1 day)?
The biodistribution muscle was 0.02 ± 0.00 % ID/g.

What about the biodistribution ovaries (1 day) of the same compound?
The biodistribution ovaries was 0.08 ± 0.03 % ID/g.

What about the biodistribution sm. intestine (1 day) of the same compound?
Its biodistribution sm. intestine is 0.09 ± 0.05 % ID.

What about the biodistribution spleen (1 day) of the same compound?
The biodistribution spleen was 0.07 ± 0.01 % ID/g.

And the biodistribution stomach (1 day)?
Its biodistribution stomach is 0.04 ± 0.05 % ID.

What about the biodistribution tumor (1 day) of the same compound?
The biodistribution tumor was 3.83 ± 0.95 % ID/g.

What about the biodistribution uterus (1 day) of the same compound?
Its biodistribution uterus is 0.09 ± 0.02 % ID/g.

And the biodistribution bladder (2 days)?
Its biodistribution bladder is 0.12 ± 0.07 % ID/g.

What about the biodistribution blood (2 days) of the same compound?
Its biodistribution blood is 0.01 ± 0.00 % ID/g.

And the biodistribution bone (2 days)?
Its biodistribution bone is 0.02 ± 0.00 % ID/g.

What about the biodistribution brain (2 days) of the same compound?
Its biodistribution brain is 0.00 ± 0.00 % ID/g.

And the biodistribution heart (2 days)?
Its biodistribution heart is 0.03 ± 0.01 % ID/g.

What about the biodistribution kidney (2 days) of the same compound?
Its biodistribution kidney is 0.49 ± 0.07 % ID/g.

And the biodistribution lg. intestine (2 days)?
The biodistribution lg. intestine was 0.07 ± 0.08 % ID.

And the biodistribution liver (2 days)?
The biodistribution liver was 0.11 ± 0.02 % ID/g.

What about the biodistribution lung (2 days) of the same compound?
The biodistribution lung was 0.08 ± 0.03 % ID/g.

What about the biodistribution muscle (2 days) of the same compound?
The biodistribution muscle was 0.02 ± 0.01 % ID/g.

What about the biodistribution ovaries (2 days) of the same compound?
The biodistribution ovaries was 0.10 ± 0.06 % ID/g.

And the biodistribution sm. intestine (2 days)?
Its biodistribution sm. intestine is 0.06 ± 0.06 % ID.

What about the biodistribution spleen (2 days) of the same compound?
The biodistribution spleen was 0.07 ± 0.01 % ID/g.

And the biodistribution stomach (2 days)?
Its biodistribution stomach is 0.01 ± 0.01 % ID.

And the biodistribution tumor (2 days)?
Its biodistribution tumor is 3.15 ± 1.32 % ID/g.

And the biodistribution uterus (2 days)?
The biodistribution uterus was 0.12 ± 0.09 % ID/g.

What about the biodistribution bladder (4 days) of the same compound?
Its biodistribution bladder is 0.13 ± 0.04 % ID/g.

What about the biodistribution blood (4 days) of the same compound?
Its biodistribution blood is 0.00 ± 0.00 % ID/g.

What about the biodistribution bone (4 days) of the same compound?
Its biodistribution bone is 0.02 ± 0.01 % ID/g.

And the biodistribution brain (4 days)?
Its biodistribution brain is 0.00 ± 0.00 % ID/g.

What about the biodistribution heart (4 days) of the same compound?
The biodistribution heart was 0.02 ± 0.00 % ID/g.

And the biodistribution kidney (4 days)?
Its biodistribution kidney is 0.34 ± 0.02 % ID/g.

What about the biodistribution lg. intestine (4 days) of the same compound?
The biodistribution lg. intestine was 0.03 ± 0.02 % ID.

What about the biodistribution liver (4 days) of the same compound?
The biodistribution liver was 0.14 ± 0.02 % ID/g.

What about the biodistribution lung (4 days) of the same compound?
The biodistribution lung was 0.06 ± 0.01 % ID/g.

And the biodistribution muscle (4 days)?
Its biodistribution muscle is 0.01 ± 0.00 % ID/g.

And the biodistribution ovaries (4 days)?
Its biodistribution ovaries is 0.09 ± 0.02 % ID/g.

And the biodistribution sm. intestine (4 days)?
The biodistribution sm. intestine was 0.04 ± 0.04 % ID.

And the biodistribution spleen (4 days)?
The biodistribution spleen was 0.07 ± 0.01 % ID/g.

And the biodistribution stomach (4 days)?
The biodistribution stomach was 0.01 ± 0.00 % ID.

And the biodistribution tumor (4 days)?
Its biodistribution tumor is 2.06 ± 0.84 % ID/g.

And the biodistribution uterus (4 days)?
Its biodistribution uterus is 0.10 ± 0.07 % ID/g.

What about the biodistribution bladder (7 days) of the same compound?
The biodistribution bladder was 0.15 ± 0.02 % ID/g.

And the biodistribution blood (7 days)?
The biodistribution blood was 0.00 ± 0.00 % ID/g.

And the biodistribution bone (7 days)?
The biodistribution bone was 0.01 ± 0.00 % ID/g.

And the biodistribution brain (7 days)?
Its biodistribution brain is 0.00 ± 0.00 % ID/g.

And the biodistribution heart (7 days)?
Its biodistribution heart is 0.01 ± 0.00 % ID/g.

And the biodistribution kidney (7 days)?
Its biodistribution kidney is 0.19 ± 0.04 % ID/g.

What about the biodistribution lg. intestine (7 days) of the same compound?
Its biodistribution lg. intestine is 0.02 ± 0.01 % ID.

What about the biodistribution liver (7 days) of the same compound?
The biodistribution liver was 0.13 ± 0.03 % ID/g.

What about the biodistribution lung (7 days) of the same compound?
The biodistribution lung was 0.04 ± 0.01 % ID/g.

What about the biodistribution muscle (7 days) of the same compound?
The biodistribution muscle was 0.01 ± 0.00 % ID/g.

What about the biodistribution ovaries (7 days) of the same compound?
The biodistribution ovaries was 0.08 ± 0.04 % ID/g.

What about the biodistribution sm. intestine (7 days) of the same compound?
The biodistribution sm. intestine was 0.07 ± 0.04 % ID.

And the biodistribution spleen (7 days)?
Its biodistribution spleen is 0.08 ± 0.01 % ID/g.

And the biodistribution stomach (7 days)?
Its biodistribution stomach is 0.01 ± 0.00 % ID.

And the biodistribution tumor (7 days)?
The biodistribution tumor was 1.02 ± 0.36 % ID/g.

And the biodistribution uterus (7 days)?
The biodistribution uterus was 0.21 ± 0.16 % ID/g.

And the “T1/2, elimination from blood” value (CC49-TCO pretargeted mice)?
Its value is 11.2 min.

What about the tumor-to-blood ratio (by the end of the experiment (7 days)) of the same compound?
The tumor-to-blood ratio was “over 500”.
